Measurements: patent US9988400B2 (Genentech, Inc., priority 2013, dated 2018)

Molecular target: T1, HEK cells stably transfected with tetracycline inducible hNR1 and hNR2A (Homo sapiens, UniProt Q05586+Q12879)
T1 construct: expressed in transfected cells; host or cells: HEK cells, stably transfected, tetracycline/doxycycline inducible
Assay: Assay 1: Cell-Based Assay, cytosolic calcium response to positive allosteric modulators (with 30 μM glycine and 300 nM L-glutamate, EC30)
Details: Table 2; for EC50: cytosolic calcium response, with 30 μM glycine and 300 nM L-glutamate (EC30), — = no plateau was reached; for Max %: responses scaled relative to 100 μM L-glutamate maximal response (100%) and 0 μM L-glutamate (0%)
Summary of the method: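 Cells induced 24 h with 7.5 μg mL^−1 doxycycline plus 500 μM (+)-ketamine, loaded 60 min at 37 °C with calcium dye in Mg-free HBSS (1.8 mM Ca, probenecid, 10 μM (+)-ketamine, pH 7.15). Peak RFU over 5 min after compound addition, scaled to 100 μM L-glutamate (100%) and 0 μM (0%); four-parameter Hill fit for EC50, max % if no plateau.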

T1 sequence (Q12879 23-1464, other chains not shown): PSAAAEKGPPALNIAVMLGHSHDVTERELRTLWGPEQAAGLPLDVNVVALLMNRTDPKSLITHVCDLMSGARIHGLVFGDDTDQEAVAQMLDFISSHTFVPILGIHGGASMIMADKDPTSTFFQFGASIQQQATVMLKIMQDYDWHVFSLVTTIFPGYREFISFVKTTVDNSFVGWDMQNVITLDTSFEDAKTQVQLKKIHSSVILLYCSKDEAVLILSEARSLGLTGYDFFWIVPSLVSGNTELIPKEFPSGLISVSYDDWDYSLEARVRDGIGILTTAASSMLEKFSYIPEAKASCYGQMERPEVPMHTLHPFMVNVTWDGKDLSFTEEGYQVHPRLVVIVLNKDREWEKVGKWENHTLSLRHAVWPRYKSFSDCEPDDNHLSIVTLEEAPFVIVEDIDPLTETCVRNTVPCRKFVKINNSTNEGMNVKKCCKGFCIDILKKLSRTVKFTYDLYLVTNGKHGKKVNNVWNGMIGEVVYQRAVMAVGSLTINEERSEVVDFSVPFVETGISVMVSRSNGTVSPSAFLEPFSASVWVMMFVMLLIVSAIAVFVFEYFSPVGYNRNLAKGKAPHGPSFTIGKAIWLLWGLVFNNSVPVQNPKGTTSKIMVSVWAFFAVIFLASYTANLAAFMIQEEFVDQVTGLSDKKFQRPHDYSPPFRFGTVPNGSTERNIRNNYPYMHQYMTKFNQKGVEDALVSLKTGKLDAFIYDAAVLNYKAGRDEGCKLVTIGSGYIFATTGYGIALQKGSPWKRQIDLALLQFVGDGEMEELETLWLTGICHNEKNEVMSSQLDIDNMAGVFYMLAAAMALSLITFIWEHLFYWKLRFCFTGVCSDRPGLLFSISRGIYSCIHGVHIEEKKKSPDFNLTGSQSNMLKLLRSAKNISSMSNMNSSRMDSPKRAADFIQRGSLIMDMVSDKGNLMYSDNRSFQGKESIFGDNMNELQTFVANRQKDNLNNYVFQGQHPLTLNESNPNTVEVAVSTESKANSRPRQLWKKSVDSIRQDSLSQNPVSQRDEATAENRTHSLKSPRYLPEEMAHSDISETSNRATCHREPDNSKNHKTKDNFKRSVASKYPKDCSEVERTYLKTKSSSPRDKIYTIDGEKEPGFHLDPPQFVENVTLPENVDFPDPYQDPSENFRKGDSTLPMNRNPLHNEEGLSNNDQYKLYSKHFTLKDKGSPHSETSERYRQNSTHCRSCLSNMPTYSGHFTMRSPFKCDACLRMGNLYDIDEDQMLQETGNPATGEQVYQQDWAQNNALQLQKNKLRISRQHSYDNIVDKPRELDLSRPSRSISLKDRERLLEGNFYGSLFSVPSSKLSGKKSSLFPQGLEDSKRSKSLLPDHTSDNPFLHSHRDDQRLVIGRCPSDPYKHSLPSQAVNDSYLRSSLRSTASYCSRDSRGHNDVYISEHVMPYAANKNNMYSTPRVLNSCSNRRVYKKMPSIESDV

Row | Compound | EC50 | Max %
1 | CCN(Cc1cc(=O)n2c(C(C)(C)O)c(C)sc2n1)c1ccc(F)cc1 [Example 10.5, 7-[(N-ethyl-4-fluoro-anilino)methyl]-3-(1-hydroxy-1-methyl-ethyl)-2-methyl-thiazolo[3,2-a]pyrimidin-5-one] | 495 nM | 158%
2 | CCN(Cc1cc(=O)n2c(C(C)O)c(C)sc2n1)c1ccc(F)cc1 (stereo not shown) [Example 10.6, 7-[(N-ethyl-4-fluoro-anilino)methyl]-3-(1-hydroxyethyl)-2-methyl-thiazolo[3,2-a]pyrimidin-5-one] | 548 nM | 176%
3 | CCN(Cc1cc(=O)n2c(CN(C)C)c(C)sc2n1)c1ccc(F)cc1 [Example 10.7, 3-[(dimethylamino)methyl]-7-[[ethyl(4-fluorophenyl)amino]methyl]-2-methyl-5H-[1,3]thiazolo[3,2-a]pyrimidin-5-one] | 23400 nM | 127%
4 | CCN(Cc1cc(=O)n2c(CN3CCC3)c(C)sc2n1)c1ccc(F)cc1 [Example 10.8, 3-(azetidin-1-ylmethyl)-7-[(N-ethyl-4-fluoro-anilino)methyl]-2-methyl-thiazolo[3,2-a]pyrimidin-5-one] | – | 63.5%
5 | CCN(Cc1cc(=O)n2c(CN3CCCC3)c(C)sc2n1)c1ccc(F)cc1 [Example 10.9, 7-[(N-ethyl-4-fluoro-anilino)methyl]-2-methyl-3-(pyrrolidin-1-ylmethyl)thiazolo[3,2-a]pyrimidin-5-one] | – | 72.1%
6 | CCN(Cc1cc(=O)n2c(CN3CC(O)C3)c(C)sc2n1)c1ccc(F)cc1 [Example 10.10, 7-[(N-ethyl-4-fluoro-anilino)methyl]-3-[(3-hydroxyazetidin-1-yl)methyl]-2-methyl-thiazolo[3,2-a]pyrimidin-5-one] | 18800 nM | 132%
7 | CCN(Cc1cc(=O)n2c(C(O)C(F)(F)F)c(C)sc2n1)c1ccc(F)cc1 (stereo not shown) [Example 10.11, 7-[(N-ethyl-4-fluoro-anilino)methyl]-2-methyl-3-(2,2,2-trifluoro-1-hydroxy-ethyl)thiazolo[3,2-a]pyrimidin-5-one] | 1200 nM | 167%
8 | CCN(Cc1cc(=O)n2c(CO)c(C)sc2n1)c1ccc(F)cc1 [Example 10.12, 7-((ethyl(4-fluorophenyl)amino)methyl)-3-(hydroxymethyl)-2-methyl-5H-thiazolo[3,2-a]pyrimidin-5-one] | 2100 nM | 149%
9 | CCN(Cc1cc(=O)n2c(COC)c(C)sc2n1)c1ccc(F)cc1 [Example 10.13, 7-[[ethyl(4-fluorophenyl)amino]methyl]-3-(methoxymethyl)-2-methyl-5H-[1,3]thiazolo[3,2-a]pyrimidin-5-one] | 345 nM | 165%
10 | CCN(Cc1cc(=O)n2c(Cn3cccn3)c(C)sc2n1)c1ccc(F)cc1 [Example 10.14, 7-[[Ethyl(4-fluorophenyl)amino]methyl]-2-methyl-3-(1H-pyrazol-1-ylmethyl)-5H-[1,3]thiazolo[3,2-a]pyrimidin-5-one] | 1500 nM | 172%
11 | CCN(Cc1cc(=O)n2c(CS(C)(=O)=O)c(C)sc2n1)c1ccc(F)cc1 [Example 10.15, 7-[(N-ethyl-4-fluoro-anilino)methyl]-2-methyl-3-(methylsulfonylmethyl)thiazolo[3,2-a]pyrimidin-5-one] | 1300 nM | 156%
12 | CCOCc1c(C)sc2nc(CN(CC)c3ccc(F)cc3)cc(=O)n12 [Example 10.16, 3-(ethoxymethyl)-7-[(N-ethyl-4-fluoro-anilino)methyl]-2-methyl-thiazolo[3,2-a]pyrimidin-5-one] | 2700 nM | 147%
13 | CCN(Cc1cc(=O)n2c(CC#N)c(C)sc2n1)c1ccc(F)cc1 [Example 10.17, 2-[7-[(N-ethyl-4-fluoro-anilino)methyl]-2-methyl-5-oxo-thiazolo[3,2-a]pyrimidin-3-yl]acetonitrile] | 1200 nM | 174%
14 | CCN(Cc1cc(=O)n2c(C(C)(C)C)csc2n1)c1ccc(F)cc1 [Example 10.18, 3-tert-butyl-7-[(N-ethyl-4-fluoro-anilino)methyl]thiazolo[3,2-a]pyrimidin-5-one] | 16900 nM | 88.2%
15 | CCN(Cc1cc(=O)n2c(C(C)(C)O)csc2n1)c1ccc(F)cc1 [Example 10.19, 7-[(N-ethyl-4-fluoro-anilino)methyl]-3-(1-hydroxy-1-methyl-ethyl)thiazolo[3,2-a]pyrimidin-5-one] | 837 nM | 165%
16 | CCN(Cc1cc(=O)n2c(C(C)O)csc2n1)c1ccc(F)cc1 (stereo not shown) [Example 10.20, 7-[(N-ethyl-4-fluoro-anilino)methyl]-3-(1-hydroxyethyl)thiazolo[3,2-a]pyrimidin-5-one] | 2200 nM | 178%
17 | CCN(Cc1cc(=O)n2c(CN3CCC34COC4)c(C)sc2n1)c1ccc(F)cc1 [Example 10.21, 7-[(N-ethyl-4-fluoro-anilino)methyl]-2-methyl-3-(6-oxa-1-azaspiro[3.3]heptan-1-ylmethyl)thiazolo[3,2-a]pyrimidin-5-one] | – | 117%

Row | Compound | EC50 | Max %
18 | CCN(Cc1cc(=O)n2c(CNCCO)c(C)sc2n1)c1ccc(F)cc1 [Example 10.22, 7-[(N-ethyl-4-fluoro-anilino)methyl]-3-[(2-hydroxyethylamino)methyl]-2-methyl-thiazolo[3,2-a]pyrimidin-5-one] | 7500 nM | 156%
19 | CCN(Cc1cc(=O)n2c(CO)c(C)sc2n1)c1cccc(C#N)c1 [Example 10.23, 3-(ethyl((3-(hydroxymethyl)-2-methyl-5-oxo-5H-thiazolo[3,2-a]pyrimidin-7-yl)methyl)amino)benzonitrile] | 22900 nM | 169%
20 | CCN(Cc1cc(=O)n2c(COC)c(C)sc2n1)c1cccc(C#N)c1 [Example 10.24, 3-[ethyl-[[3-(methoxymethyl)-2-methyl-5-oxo-thiazolo[3,2-a]pyrimidin-7-yl]methyl]amino]benzonitrile] | 8900 nM | 160%
21 | CCN(Cc1cc(=O)n2c(CSC)c(C)sc2n1)c1ccc(F)cc1 [Example 10.25, 7-((ethyl(4-fluorophenyl)amino)methyl)-2-methyl-3-((methylthio)methyl)-5H-thiazolo[3,2-a]pyrimidin-5-one] | 345 nM | 165%
22 | CCN(Cc1cc(=O)n2c(Cl)c(C)sc2n1)c1ccc(F)cc1 [Example 11.1, 3-chloro-7-[[ethyl(4-fluorophenyl)amino]methyl]-2-methyl-5H-[1,3]thiazolo[3,2-a]pyrimidin-5-one] | 2000 nM | 159%
23 | CCN(Cc1cc(=O)n2c(F)c(C)sc2n1)c1ccc(F)cc1 [Example 11.2, 7-[(N-ethyl-4-fluoro-anilino)methyl]-3-fluoro-2-methyl-thiazolo[3,2-a]pyrimidin-5-one] | – | 107%
24 | CCN(Cc1cc(=O)n2cc(C)sc2n1)c1ccc(F)cc1 [Example 11.3, 7-[(N-ethyl-4-fluoro-anilino)methyl]-2-methyl-thiazolo[3,2-a]pyrimidin-5-one] | 3200 nM | 132%
25 | CCN(Cc1cc(=O)n2c(I)c(C)sc2n1)c1ccc(F)cc1 [Example 11.4, 7-[(N-ethyl-4-fluoro-anilino)methyl]-3-iodo-2-methyl-thiazolo[3,2-a]pyrimidin-5-one] | – | 103%
26 | CCN(Cc1cc(=O)n2c(Cl)csc2n1)c1ccc(F)cc1 [Example 11.5, 3-chloro-7-[(N-ethyl-4-fluoro-anilino)methyl]thiazolo[3,2-a]pyrimidin-5-one] | 4600 nM | 167%
27 | CCN(Cc1cc(=O)n2cc(C)sc2n1)c1ccccc1 [Example 11.6, 7-[(N-ethylanilino)methyl]-2-methyl-thiazolo[3,2-a]pyrimidin-5-one] | 5000 nM | 133%
28 | CCN(Cc1cc(=O)n2c(C(O)CCO)c(C)sc2n1)c1ccc(F)cc1 (stereo not shown) [Example 12.1, 3-(1,3-dihydroxypropyl)-7-[(N-ethyl-4-fluoro-anilino)methyl]-2-methyl-thiazolo[3,2-a]pyrimidin-5-one] | 723 nM | 166%
29 | CCN(Cc1cc(=O)n2c(C(F)CCO)c(C)sc2n1)c1ccc(F)cc1 (stereo not shown) [Example 12.2, 7-[(N-ethyl-4-fluoro-anilino)methyl]-3-(1-fluoro-3-hydroxy-propyl)-2-methyl-thiazolo[3,2-a]pyrimidin-5-one] | 270 nM | 192%
30 | CCN(Cc1cc(=O)n2c(C(O)CO)c(C)sc2n1)c1ccc(F)cc1 (stereo not shown) [Example 12.5, 3-(1,2-dihydroxyethyl)-7-[(N-ethyl-4-fluoro-anilino)methyl]-2-methyl-thiazolo[3,2-a]pyrimidin-5-one] | 974 nM | 153%
31 | CCN(Cc1cc(=O)n2c(CCCO)c(C)sc2n1)c1ccc(F)cc1 [Example 13.1, 7-[(N-ethyl-4-fluoro-anilino)methyl]-3-(3-hydroxypropyl)-2-methyl-thiazolo[3,2-a]pyrimidin-5-one] | 434 nM | 161%
32 | CCN(Cc1cc(=O)n2c(CCCOC)c(C)sc2n1)c1ccc(F)cc1 [Example 13.2, 7-((Ethyl(4-fluorophenyl)amino)methyl)-3-(3-methoxypropyl)-2-methyl-5H-thiazolo[3,2-a]pyrimidin-5-one] | 913 nM | 130%
33 | CCN(Cc1cc(=O)n2c(CCCCO)c(C)sc2n1)c1ccc(F)cc1 [Example 13.3, 7-((Ethyl(4-fluorophenyl)amino)methyl)-3-(4-hydroxybutyl)-2-methyl-5H-thiazolo[3,2-a]pyrimidin-5-one] | 783 nM | 137%
